Experimental data reported in ChEMBL document CHEMBL4699491, “Identification of TNO155, an Allosteric SHP2 Inhibitor for the Treatment of Cancer” (J Med Chem, 2020).
Converted amounts (≈) assume the structure as drawn.

Assays:
physchem [1] = settings: octanol/water
Description: Distribution coefficient, logD of the compound

physchem [2] = settings: aqueous, pH 6.8
Description: Aqueous solubility of the compound at pH 6.8

physchem [3] = settings: octanol/water; remark: listed apart in the source
Description: Lipophilicity, logP of the compound

[4] = target: Voltage-gated inwardly rectifying potassium channel KCNH2 (Homo sapiens, UniProt Q12809)
Description: Inhibition of human ERG by Q-patch assay

KYSE-520 cell line = test: Antiproliferative activity against human KYSE-520 cells; type: functional, cell-based
[5] = target: T1, Tyrosine-protein phosphatase non-receptor type 11 (Homo sapiens, UniProt Q06124)
T1 sequence (Q06124 whole entry): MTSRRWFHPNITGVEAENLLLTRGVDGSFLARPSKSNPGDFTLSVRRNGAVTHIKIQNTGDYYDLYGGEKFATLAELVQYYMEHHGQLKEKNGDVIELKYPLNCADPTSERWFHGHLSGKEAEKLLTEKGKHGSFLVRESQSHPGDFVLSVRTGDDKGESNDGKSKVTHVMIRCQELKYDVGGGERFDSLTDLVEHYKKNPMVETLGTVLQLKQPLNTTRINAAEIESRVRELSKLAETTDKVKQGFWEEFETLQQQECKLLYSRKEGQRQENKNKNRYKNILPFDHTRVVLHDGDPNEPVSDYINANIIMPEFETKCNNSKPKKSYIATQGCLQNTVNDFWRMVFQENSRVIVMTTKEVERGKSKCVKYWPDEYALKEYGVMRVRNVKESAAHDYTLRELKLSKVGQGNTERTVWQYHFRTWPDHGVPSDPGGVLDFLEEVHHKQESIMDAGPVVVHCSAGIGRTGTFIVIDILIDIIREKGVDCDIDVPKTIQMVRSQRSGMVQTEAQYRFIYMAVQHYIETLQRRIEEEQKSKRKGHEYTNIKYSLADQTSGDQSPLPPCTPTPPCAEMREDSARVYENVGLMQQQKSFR
Description: Allosteric inhibition of human SHP2 in human KYSE-520 cells assessed as reduction in ERK1/2 phosphorylation by fluorescence based assay

[6] = Toxicity in mouse 3T3 cells under irradiation by NRU phototoxicity test; type: cell-based
[7] = target: T2, Tyrosine-protein phosphatase non-receptor type 11 (Homo sapiens) (UniProt Q06124); settings: filed as negative allosteric modulator
T2 sequence (whole entry): T1 sequence (Q06124 whole entry)

[8] = target: T1, Tyrosine-protein phosphatase non-receptor type 11; test: Allosteric inhibition of 6x-histidine tagged human SHP2 (Met1-L525 residues) expressed in Escherichia coli BL21 Star (DE3) using IRS1_pY1172(dPEG8)[…] incubated for 30 mins by fluorescence based DIFMUP assay
NCI-H358 = test: Antiproliferative activity against human NCI-H358 cells; type: functional, cell-based

Voltage-gated inwardly rectifying potassium channel KCNH2, sequence (Q12809 whole entry): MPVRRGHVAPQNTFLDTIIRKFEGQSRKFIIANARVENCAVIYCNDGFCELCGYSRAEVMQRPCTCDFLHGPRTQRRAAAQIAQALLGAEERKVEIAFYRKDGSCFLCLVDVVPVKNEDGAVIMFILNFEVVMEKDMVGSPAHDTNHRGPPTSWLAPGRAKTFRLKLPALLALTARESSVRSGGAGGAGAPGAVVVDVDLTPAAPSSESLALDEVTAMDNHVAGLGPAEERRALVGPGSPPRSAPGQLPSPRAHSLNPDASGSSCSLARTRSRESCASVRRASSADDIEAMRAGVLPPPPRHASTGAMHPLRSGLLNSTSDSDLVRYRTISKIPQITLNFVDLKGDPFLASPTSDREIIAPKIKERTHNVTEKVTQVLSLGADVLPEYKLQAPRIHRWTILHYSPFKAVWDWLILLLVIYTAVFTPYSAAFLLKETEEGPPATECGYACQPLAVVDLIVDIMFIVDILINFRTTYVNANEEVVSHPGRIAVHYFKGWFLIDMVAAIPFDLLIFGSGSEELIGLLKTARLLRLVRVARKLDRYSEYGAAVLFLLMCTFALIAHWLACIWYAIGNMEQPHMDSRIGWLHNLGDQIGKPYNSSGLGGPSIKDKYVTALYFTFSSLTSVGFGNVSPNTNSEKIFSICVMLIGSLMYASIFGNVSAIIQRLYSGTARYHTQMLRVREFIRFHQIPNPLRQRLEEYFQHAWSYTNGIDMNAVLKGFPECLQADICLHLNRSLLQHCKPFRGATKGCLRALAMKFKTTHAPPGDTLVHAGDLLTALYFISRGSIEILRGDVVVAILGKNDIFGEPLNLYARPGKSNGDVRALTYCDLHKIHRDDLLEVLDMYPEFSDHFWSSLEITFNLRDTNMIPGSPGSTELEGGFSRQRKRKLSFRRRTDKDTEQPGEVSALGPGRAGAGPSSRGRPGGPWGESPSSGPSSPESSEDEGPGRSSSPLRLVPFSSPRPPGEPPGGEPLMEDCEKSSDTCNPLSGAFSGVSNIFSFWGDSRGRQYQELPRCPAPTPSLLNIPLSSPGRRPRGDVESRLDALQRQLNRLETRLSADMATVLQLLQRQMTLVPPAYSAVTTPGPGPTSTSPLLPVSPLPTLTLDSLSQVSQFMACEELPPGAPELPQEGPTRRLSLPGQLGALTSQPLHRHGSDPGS

Nc1nc(N2CCC3(CCC[C@H]3N)CC2)cnc1Sc1ccnc(N)c1Cl showed a logD (physchem [1]) of -0.6, a solubility (physchem [2]) of 561 µM (≈ 228 µg/mL) and a logP (physchem [3]) of 2.2. It also gave an IC50 [4] of over 30000 nM, an IC50 (KYSE-520 cell line; Homo sapiens, KYSE-520) of 123 nM and an IC50 [5] of 24 nM.

For CC1(CN)CCN(c2cnc(Sc3ccnc(N)c3Cl)c(N)n2)CC1, the logD (physchem [1]) was -0.9, the solubility (physchem [2]) was 437 µM (≈ 166 µg/mL) and the logP (physchem [3]) was 2. For the same compound, the IC50 [4] was over 30000 nM, the IC50 (KYSE-520 cell line; Homo sapiens, KYSE-520) was 851 nM and the IC50 [5] was 123 nM.

With CC1(N)CCN(c2cnc(Sc3cccc(Cl)c3Cl)c(N)n2)CC1 the logD (physchem [1]) was 1.1, the solubility (physchem [2]) was 7 µM (≈ 2.69 µg/mL) and the logP (physchem [3]) was 3.6. For the same compound, the IC50 [4] was 2800 nM, the IC50 (KYSE-520 cell line; kyse-520) was 4070 nM and the IC50 [5] was 195 nM. The IC50 [6] was 16200 nM.

Compound Nc1nc2ccc(Sc3cccc(Cl)c3Cl)nc2[nH]1 has a ΔTm [7] of 1.5 °C.

For C[C@H]1OCC2(CCN(c3cnc(Sc4ccnc(N)c4Cl)c(N)n3)CC2)[C@@H]1N, the solubility (physchem [2]) was 382 µM (≈ 161 µg/mL) and the IC50 (KYSE-520 cell line; kyse-520) was 740 nM.

Compound Nc1nccc(Sc2cnc(N3CCC4(CCC[C@H]4N)CC3)cn2)c1Cl has an IC50 (KYSE-520 cell line; Homo sapiens, KYSE-520) of 87 nM.

CC1(CN)CCN(c2cnc(Sc3cccc(Cl)c3Cl)c(N)n2)CC1 showed a logD (physchem [1]) of 2.5, a solubility (physchem [2]) of 109 µM (≈ 43.4 µg/mL) and a logP (physchem [3]) of 4.3. It also gave an IC50 [8] of 17 nM, an IC50 [4] of 2400 nM and an IC50 (KYSE-520 cell line; kyse-520) of 2670 nM. It also gave an IC50 [5] of 88 nM.

Work on CC1(N)CCN(c2cnc(Cc3cccc(Cl)c3Cl)c(N)n2)CC1 yielded an IC50 [8] of 9900 nM.

Work on CC1(CN)CCN(c2cnc(Sc3cccnc3C(F)(F)F)c(N)n2)CC1 yielded an IC50 (KYSE-520 cell line; Homo sapiens, KYSE-520) of 4050 nM.

Compound C=CC(=O)N1CCN(c2nc(=O)n(-c3c(C)ccnc3C(C)C)c3nc(-c4c(O)cccc4F)c(F)cc23)[C@@H](C)C1 [SOTORASIB] has an IC50 (NCI-H358) of under 30 nM.
